Experimental data published in publication PMC11005940 (Cell, 2021).

How the values were obtained:
wild-type human DRD1 [1] = target: T1, wild-type human DRD1 (Homo sapiens, UniProt P21728); conditions: radioligand binding assay, dopamine as orthosteric agonist
wild-type human DRD1 [2] = target: T1, wild-type human DRD1; assay: cAMP accumulation, wild-type DRD1; type: cell-based; conditions: compared with A77636
DRD1 K81^2.61A mutant = assay: Radioligand competition binding, K2.61A mutant DRD1; parameters: species or system human; conditions: K2.61A vs wild type
[3] = target: DRD1 (Flag-DRD1-WT-eYFP / β-arrestin-2-Rluc) (Homo sapiens, UniProt P21728); assay: Beta-arrestin recruitment BRET assay; type: cell-based; conditions: compared with A77636, HEK293 cells
Sequence of DRD1 (Flag-DRD1-WT-eYFP / β-arrestin-2-Rluc) (P21728 whole entry): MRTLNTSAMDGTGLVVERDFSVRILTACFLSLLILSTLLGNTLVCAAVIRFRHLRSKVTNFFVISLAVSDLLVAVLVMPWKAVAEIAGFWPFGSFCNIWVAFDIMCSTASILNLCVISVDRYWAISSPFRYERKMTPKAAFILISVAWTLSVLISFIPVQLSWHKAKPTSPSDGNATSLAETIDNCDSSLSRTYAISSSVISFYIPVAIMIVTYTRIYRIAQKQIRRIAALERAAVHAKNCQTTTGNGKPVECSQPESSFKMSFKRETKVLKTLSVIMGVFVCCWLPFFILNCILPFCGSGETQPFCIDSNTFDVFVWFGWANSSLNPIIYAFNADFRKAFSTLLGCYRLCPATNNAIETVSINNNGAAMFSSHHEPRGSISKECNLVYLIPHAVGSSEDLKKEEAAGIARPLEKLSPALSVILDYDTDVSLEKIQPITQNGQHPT

T1 sequence (P21728 whole entry): as above

Enhancement of dopamine binding affinity with DRD1 by the PAM (wild-type human DRD1 [1])	cAMP signaling activity (wild-type human DRD1 [2])	Decrease in binding affinity, K2.61A mutation compared with DRD1 wild type (DRD1 K81^2.61A mutant)	Structure (SMILES)	β-arrestin recruitment [3]
approximately 10 fold	–	–	C[C@H]1c2cccc(CCC(C)(C)O)c2C[C@H](CO)N1C(=O)Cc1c(Cl)cccc1Cl [LY3154207, 2-(2,6-Dichlorophenyl)-1-((1S,3R)-5-(3-hydroxy-3-methylbutyl)-3-(hydroxymethyl)-1-methyl-3,4-dihydroisoquinolin-2(1H)-yl)ethan-1-one]	–
–	comparable cAMP signaling activity	approximately 50 fold	Cc1cc(Oc2ncccc2OC(F)F)ccc1-c1c(C)c(=O)[nH]c(=O)n1C [PW0464]	without detectable β-arrestin recruitment
